This note sets out measurements from article PMC4177084 (Journal of Thyroid Research, 2014).

Like-named read-outs stand apart in the source and are kept apart here. Bounds are passed on as bounds.

One test has as its system RO82-W-1 cells. Briefly: Antiproliferation assay (WST-8). To be noted: for antiproliferative activity: RO82-W-1, in words; for T/N: ratio of IC50 values of thyroid cancer cell lines to that of Nthy-ori 3-1 cells: RO82-W-1; for IC50: RO82-W-1 (DTC), antiproliferative, 3 days. The class given is cell-based, human. Background: Formazan colour is commonly taken as a measure of viable cells.

In the next test the test system is K1 cells. Nature of the test: Antiproliferation assay (WST-8). Type of test: cell-based, human. To be noted: for T/N: ratio of IC50 values of thyroid cancer cell lines to that of Nthy-ori 3-1 cells: K1; for IC50: K1 (DTC), antiproliferative, 3 days.
In another test the test system is FTC-238 cells. Briefly: Antiproliferation assay (WST-8). To be noted: for T/N: ratio of IC50 values of thyroid cancer cell lines to that of Nthy-ori 3-1 cells: FTC-238; for IC50: FTC-238 (DTC), antiproliferative, 3 days. Type of test: cell-based, human.
Another test deals with Nthy-ori 3-1 cells. Nature of the test: Antiproliferation assay (WST-8). Conditions: Nthy-ori 3-1 (normal thyroid), antiproliferative, 3 days. The class given is cell-based, human.
A further test deals with FTC-236 cells. Briefly: Antiproliferation assay (WST-8). Type of test: cell-based, human.
Another test has as its system FTC-133 cells. Briefly: Antiproliferation assay (WST-8). Type of test: cell-based, human. To be noted: for T/N: ratio of IC50 values of thyroid cancer cell lines to that of Nthy-ori 3-1 cells: FTC-133; for IC50: FTC-133 (DTC), antiproliferative, 3 days.
Another test has as its system RO82-W-1 xenograft. Nature of the test: Human thyroid cancer xenograft model, tumor growth. Type of test: in vivo, nude mice. Here is the method: Nude mice (CAnN.Cg-Foxn1nu/CrlCrlj, female, 5-6 weeks old) were obtained from Charles River Laboratories Japan (Kanagawa, Japan). Mice were maintained under specific pathogen-free conditions and housed in barrier facilities on a 12 h light/dark cycle, with food and water ad libitum. All procedures using laboratory animals were done in accordance with all applicable institutional and government regulatory guidelines and policies and were performed in an animal facility accredited by the Center for Accreditation of Laboratory Animal Care of the Japan Health Sciences Foundation.
Tumor cells were cultured in appropriate culture mediums. Cells were harvested with 0.05% or 0.25% (w/v) trypsin/EDTA and suspended with 50% (v/v) BD Matrigel (BD Biosciences, San Jose, CA) in the mixture of culture mediums at a density of 5–10 × 10^7 cells/mL. Then, 0.1-0.2 mL of the cell suspension was inoculated subcutaneously into the right flank region of each mouse. […] The tumor size was measured in two dimensions by using a caliper, and the volume was calculated by using the formula: tumor volume (mm^3) = 1/2 length (mm) × [width (mm)]^2. The change in tumor volume in the treated group relative to that in the control group was calculated according to the following formula: ΔT/C = (ΔT/ΔC) × 100%, where ΔT and ΔC are the change in tumor volume (i.e., growth) for the treated and vehicle control group, respectively. The percentage of tumor growth inhibition (%TGI) was calculated from the formula: [(1 − ΔT/ΔC) × 100].
Supplementary Fig. S7 Comparison of antitumor activity with antiangiogenesis activity in human differentiated thyroid cancer RO82-W-1 xenografts in nude mice.
Nude mice bearing RO82-W-1 xenografts […]
when tumor volumes reached about 200 mm3 (day 1). The tumor volume was measured on day 22. Each group consisted of 6 mice. Data are shown as means ± SD. * P < 0.05 compared with vehicle-treated mice.
(b) The percentage of tumor growth inhibition (%TGI). Each group consisted of 6 mice. Antitumor activity was calculated as %TGI at day 22. Data are shown as means ± SD. * P < 0.05 compared […]
analyze the relationship between antitumor activity (%TGI) and antiangiogenesis activity (percentage of […]
sorafenib-treated groups were plotted on the X- and Y-axes, respectively. %TGI and %MVI was determined as described in Materials and Methods. Analysis of covariance (ANCOVA) for %TGI was examined by using %MVI as a covariate (P<0.05)
For orientation: In xenograft studies the graft and the host belong to different species.

Test [1] has as its system FGFR1 and its downstream effectors (FRS2, MEK, ERK). Briefly: Western blot of FGFR1 signaling in bFGF-stimulated RO82-W-1 cells. In general terms: A western blot detects proteins with antibodies after separation by electrophoresis.
The target of a further test is T1, COT (Homo sapiens, UniProt P41279).
T1 construct: purchased Carna Biosciences, Inc. (Kobe, Japan)
Briefly: Cell free kinase inhibition assay. The class given is biochemical. The method, then:
[…]. Briefly, each test compound was mixed with enzyme, substrate, ATP, and Mg under appropriate buffer conditions for the ELISA or MSA. […] IC50 values (the half maximal inhibitory concentration) were calculated from concentrations versus % inhibition curves.

The test system of the next test is TT cells. Briefly: Antiproliferation assay (WST-8). The class given is cell-based. To be noted: Homo sapiens, TT, 240 h.
The mark [2] stands for this setting: FTC-236 (DTC), antiproliferative, 3 days, read-out: IC50.

T1 sequence (P41279 whole entry): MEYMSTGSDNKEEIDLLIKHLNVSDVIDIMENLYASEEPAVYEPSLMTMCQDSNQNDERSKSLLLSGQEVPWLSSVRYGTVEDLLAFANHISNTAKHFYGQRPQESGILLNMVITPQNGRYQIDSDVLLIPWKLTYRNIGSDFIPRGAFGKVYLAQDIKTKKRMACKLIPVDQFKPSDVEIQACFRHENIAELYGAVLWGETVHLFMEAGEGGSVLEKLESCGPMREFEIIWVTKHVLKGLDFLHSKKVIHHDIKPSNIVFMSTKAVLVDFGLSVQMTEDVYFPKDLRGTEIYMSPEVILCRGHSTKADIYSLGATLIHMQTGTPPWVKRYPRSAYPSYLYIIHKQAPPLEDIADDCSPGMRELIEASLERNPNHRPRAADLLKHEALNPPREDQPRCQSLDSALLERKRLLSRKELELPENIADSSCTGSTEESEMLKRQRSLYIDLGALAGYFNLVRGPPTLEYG

Take `Cc1ccc(NC(=O)c2ccc(CN3CCN(C)CC3)cc2)cc1Nc1nccc(-c2cccnc2)n1` [Glivec, imatinib]: the antiproliferative activity entry in the test with RO82-W-1 cells is listed as “no antiproliferative activity”.
Consider `COc1ccc(Oc2ccnc3cc(OC)c(OC)cc23)cc1OC` [Ki6783], for which the “T/N: ratio of IC50 values of thyroid cancer cell lines to that of Nthy-ori 3-1 cells” value (“T/N: ratio” below) with K1 cells turned out to be 5.4; with FTC-238 cells it was 1.2; in the test with RO82-W-1 cells, 1.5; with FTC-133 cells, 4.7. Moreover, the IC50 (commonly the concentration needed to halve the response being measured) in the test with K1 cells is 9.2 µM; with FTC-238 cells, 2 µM; in the test with Nthy-ori 3-1 cells, 1.7 µM; in the test with RO82-W-1 cells, 2500 nM; in the test with FTC-236 cells (setting [2]), > 30 µM; in the test on FTC-133 cells, 8 µM. In addition, the antiproliferative activity entry in the test with RO82-W-1 cells is on record as “no antiproliferative activity”.
For `COc1cc(OC)cc(-c2cc3cnc(N)nc3nc2NC(=O)NC(C)(C)C)c1` [PD166866], the “T/N: ratio” value in the test on K1 cells came out at 2.07; in the test with FTC-238 cells it was 1.5; in the test with RO82-W-1 cells it was 0.14; in the test on FTC-133 cells it was 1.64. Moreover, the IC50 is 29 µM with K1 cells; 21 µM in the test with FTC-238 cells; 14 µM with Nthy-ori 3-1 cells; 1900 nM in the test on RO82-W-1 cells; > 30 µM with FTC-236 cells (setting [2]); 23 µM in the test on FTC-133 cells.
Regarding `CCN(CC)CCCCNc1ncc2cc(-c3cc(OC)cc(OC)c3)c(NC(=O)NC(C)(C)C)nc2n1` [PD173074], the IC50 amounted to 11 µM with K1 cells (Homo sapiens, 72 h); 9.4 µM in the test on FTC-238 cells (Homo sapiens, 72 h); 4.6 µM with Nthy-ori 3-1 cells (Homo sapiens, 72 h); 630 nM in the test on RO82-W-1 cells (Homo sapiens, 72 h); 4.3 µM in the test on FTC-236 cells (Homo sapiens, 72 h, FTC-236 (DTC), antiproliferative, 3 days, read-out: IC50); 9.7 µM in the test with FTC-133 cells (Homo sapiens, 72 h). The “T/N: ratio” value in the test on K1 cells came to 2.39; in the test on FTC-238 cells it was 2.04; in the test on RO82-W-1 cells, 0.14; in the test on FTC-236 cells (FTC-236), 0.93; in the test with FTC-133 cells, 2.11. Also, the antitumor activity result with RO82-W-1 xenograft (RO82-W-1 xenograft, daily oral administration for 14 days) was “significant antitumor activity”. Moreover, the “phosphorylation of FGFR1, FRS2, MEK, and ERK” value in test [1] (1 h treatment, then bFGF 20 ng/mL and heparin 10 min) was “inhibited the bFGF-induced phosphorylation of FGFR1, FRS2, MEK, and ERK in a concentration-dependent manner”.
For `CNC(=O)c1cc(Oc2ccc(NC(=O)Nc3ccc(Cl)c(C(F)(F)F)c3)cc2)ccn1` [Sorafenib], the half-maximal inhibitory concentration (IC50) was 5.2 µM with K1 cells (Homo sapiens, 72 h); 7.3 µM in the test on FTC-238 cells (Homo sapiens, 72 h); 4200 nM in the test on RO82-W-1 cells (Homo sapiens, 72 h); 7.7 µM in the test on FTC-236 cells (Homo sapiens, 72 h); 5.5 µM in the test with FTC-133 cells (Homo sapiens, 72 h); > 10 µM at COT. In the test with TT cells, inhibition was half-maximal at 260 nM (IC50). Besides, in the test with RO82-W-1 xenograft (RO82-W-1 xenografts, oral once daily 21 days, doses between 30 and 300 mg/kg), the tumor growth result is “inhibited tumor growth”. In addition, the “phosphorylation of MEK” value in test [1] (10 μM, bFGF-stimulated) is “weakly inhibited”. In addition, in test [1] (up to 10 μM, bFGF-stimulated), the “phosphorylation of FGFR1 or its other downstream effectors” value is listed as “did not clearly inhibit”.
